Data on 27 molecules can be found in patent publication EP0532097A1, “Piperazinyl(sulfon)amide derivatives of camphor as oxytocin antagonists” (MERCK & CO. INC., priority 1991, dated 1993).

The term IC50 denotes the concentration that inhibits the measured activity by half.

The target in this test is T1, uterine OT receptors (Rattus norvegicus, UniProt P70536).
T1 construct: using a crude membrane preparation of uteri; from tissue; host or cells: uterus of DES-treated rats, crude membrane preparation
T1 sequence (P70536 1-388): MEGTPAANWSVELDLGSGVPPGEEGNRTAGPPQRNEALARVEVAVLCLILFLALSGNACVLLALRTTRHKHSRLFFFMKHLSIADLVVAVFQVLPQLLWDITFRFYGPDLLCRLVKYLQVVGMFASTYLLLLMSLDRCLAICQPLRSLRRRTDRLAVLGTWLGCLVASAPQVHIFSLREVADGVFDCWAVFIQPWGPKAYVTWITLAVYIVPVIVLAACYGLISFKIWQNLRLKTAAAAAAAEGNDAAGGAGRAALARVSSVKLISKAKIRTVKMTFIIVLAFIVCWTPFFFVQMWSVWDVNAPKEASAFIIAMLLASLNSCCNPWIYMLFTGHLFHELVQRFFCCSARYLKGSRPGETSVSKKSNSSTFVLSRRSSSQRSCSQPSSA
Put plainly: [³H]Oxytocin radioligand binding assay, crude membrane preparation of uteri from DES-treated rats. Particulars: for inhibition at 0.1 µM: read-out: inhibition at 100 nM; for inhibition at 1 µM: read-out: inhibition at 1,000 nM; for inhibition at 10 µM: read-out: inhibition at 10,000 nM.

[1] abbreviates: competition with 1 nM [³H]OT, 60 minutes, 22°C, concentration that inhibits 50% of OT, read-out: IC50.

Read-outs that look alike come from different tables or passages of the source.

Method: The high affinity binding of [³H] Oxytocin (OT)([tyrosyl, 3,5-[³H]OT; 30-60 Ci/mmol; New England Nuclear. Boston, MA) to uterine OT receptors was based on an assay (Fuchs, A-R; Fuchs, F; Soloff, MS. 1985 J. Clin. Endocrinol. Metab. 60:37) using a crude membrane preparation of uteri taken from diethylstilbestrol dipropionate (DES)-treated (0.3 mg/kg, ip; 18-24) rats. Competition studies were conducted at equilibrium (60 minutes; 22°C) using 1 nM[³H]OT in the following assay buffer: 50 mM Tris-HCl, 5 mM MgCl₂, and 0.1% BSA, pH 7.4. Nonspecific binding (10% of the total binding) was determined using 1 mM unlabeled OT and the binding reaction was terminated by filtration through glass fiber filters using a cell harvester (model 7019, Skatron, Inc., Sterling, VA). IC₅₀ (the concentration of tested compound that inhibits 50% of OT) was reported, unless otherwise noted.

As to “1-((7,7-Dimethyl-2-(3-acetamido-3-carboxy)propylidine-bicyclo(2.2.1)-heptan-1-yl)methanesulfonyl)-4-(2-methylphenyl)piperazine [Example 29]”, the “inhibition at 1,000 nM” value (at 1,000 nM, 1 µM) is on record as 78% inhibition at 1,000 nM. Consider “1-((7,7-Dimethyl-2-exo-hydroxy-2-endo-2-(1-(4-pyridinyl)methylamino)-propyl-bicyclo(2.2.1)heptan-1-yl)methanesulfonyl)-4-(2-methylphenyl)-piperazine [Example 27]”, for which the “inhibition at 100 nM” value (at 100 nM) was found to be 37% inhibition at 100 nM. On to `COC(=O)CCNCC(C)C1(O)CC2CCC1(CS(=O)(=O)N1CCN(c3ccccc3C)CC1)C2(C)C` (stereo not drawn) [Example 10, 1-((7,7-Dimethyl-2-exo-hydroxy-2-endo-2-(1-(2-methoxycarbonylethyl)-amino)propyl-bicyclo(2.2.1)heptan-1-yl)methanesulfonyl)-4-(2-methylphenyl)piperazine], for which the inhibition at 0.1 µM is 48%.

For `C=CC1(O)CC2CCC1(CS(=O)(=O)N1CCN(c3ccccc3C)CC1)C2(C)C` (stereo not drawn) [Example 12, 1-((7,7-dimethyl-2-exo-hydroxy-2-endo-ethenyl-bicyclo(2.2.1)heptan-1-yl)methanesulfonyl)-4-(2-methylphenyl)piperazine], the inhibition at 0.1 µM amounted to 23%. Take `Cc1ccccc1N1CCN(S(=O)(=O)CC23CCC(CC2=CCN=[N+]=[N-])C3(C)C)CC1` (stereo not drawn) [Example 15, 1-((7,7-dimethyl-2-(2-azido)ethylidine-bicyclo-(2.2.1)heptan-1-yl)methanesulfonyl)-4-(2-methyl-phenyl)piperazine]: the inhibition at 1 µM worked out at 44%.

Take `Cc1ccccc1N1CCN(S(=O)(=O)CC23CCC(CC2=CCN)C3(C)C)CC1` (stereo not drawn) [Example 16, 1-((7,7-dimethyl-2-(2-amino)ethylidine-bicyclo-(2.2.1)heptan-1-yl)methanesulfonyl)-4-(2-methyl-phenyl)piperazine]: the inhibition at 1 µM was 64%. In the case of `Cc1ccccc1N1CCN(S(=O)(=O)CC23CCC(CC2=CCNC(=O)Cc2cnc[nH]2)C3(C)C)CC1` (stereo not drawn) [Example 17, 1-((7,7-dimethyl-2-(2-(4(5)-imidazolylacetyl)amino)-ethylidine-bicyclo(2.2.1)heptan-1-yl)methane-sulfonyl)-4-(2-methylphenyl)piperazine], the inhibition at 0.1 µM is 36%.

On to `Cc1ccccc1N1CCN(S(=O)(=O)CC23CCC(CC24CO4)C3(C)C)CC1` (stereo not drawn) [Example 18, 1-((7,7-Dimethyl-2-spiro-epoxy-bicyclo(2.2.1)heptan-1-yl)methane-sulfonyl)-4-(2-methylphenyl)piperazine], for which the inhibition at 1 µM came out at 75%. On the same count and under the same terms, the result for `Cc1ccccc1N1CCN(S(=O)(=O)C[C@]23CC[C@H](C[C@]2(O)CNCC(C)C)C3(C)C)CC1` [Example 19, 1-((7,7-Dimethyl-2-exo-hydroxy-2-endo-isobutylamino-methyl-bicyclo(2.2.1)heptan-1-yl)methanesulfonyl)-4-(2-methylphenyl)piperazine] reads 31%; that for `COC(=O)C1=CC2CCC1(CS(=O)(=O)N1CCN(c3ccccc3C)CC1)C2(C)C` (stereo not drawn) [Example 20, 1-((7,7-Dimethyl-2-methoxycarbonyl-bicyclo(2.2.1)hept-2-en-1-yl)methanesulfonyl)-4-(2-methylphenyl)-piperazine], 72%.

`Cc1ccccc1N1CCN(S(=O)(=O)CC23CCC(C=C2C(=O)O)C3(C)C)CC1` (stereo not drawn) [Example 21, 1-((7,7-Dimethyl-2-carboxy-bicyclo(2.2.1)hept-2-en-1-yl)methanesulfonyl)-4-(2-methylphenyl)piperazine]: the inhibition at 1 µM was 38%. The same measure, in the same setting: with `Cc1ccccc1N1CCN(S(=O)(=O)CC23CCC(C=C2C(=O)NCCc2cnc[nH]2)C3(C)C)CC1` (stereo not drawn) [Example 22, 1-((7,7-Dimethyl-2-(4-imidazolyl)ethylaminocarbonyl-bicyclo(2.2.1)hept-2-en-1-yl)methanesulfonyl)-4-(2-methylphenyl)piperazine] the figure was 78%. Regarding `COC(=O)[C@H]1C[C@H]2CC[C@]1(CS(=O)(=O)N1CCN(c3ccccc3C)CC1)C2(C)C` [Example 23, 1-((7,7-Dimethyl-2-endo-methoxycarbonyl-bicyclo-(2.2.1)heptan-1-yl)methanesulfonyl)-4-(2-methyl-phenyl)piperazine], under setting [1], the IC50 was determined as 120 nM. Same read-out and setting: with `Cc1ccccc1N1CCN(S(=O)(=O)C[C@]23CC[C@H](C[C@@H]2C(=O)O)C3(C)C)CC1` [Example 24, 1-((7,7-Dimethyl-2-endo-carboxy-bicyclo(2.2.1)heptan-1-yl)methane-sulfonyl)-4-(2-methylphenyl)piperazine] the figure was 260 nM. In the case of `Cc1ccccc1N1CCN(S(=O)(=O)C[C@]23CC[C@H](C[C@@H]2C(=O)NCCc2cnc[nH]2)C3(C)C)CC1` [Example 25, 1-((7,7-Dimethyl-2-endo-(4-imidazolyl)ethylamino-carbonyl-bicyclo-(2.2.1)heptan-1-yl)methanesulfonyl)-4-(2-methylphenyl)piperazine], the inhibition at 0.1 µM worked out at 34%. On the same count and under the same terms, the result for `CCOC(=O)C(CC=C1CC2CCC1(CS(=O)(=O)N1CCN(c3ccccc3C)CC1)C2(C)C)(NC(C)=O)C(=O)OCC` (stereo not drawn) [Example 28, 1-((7,7-Dimethyl-2-(3-acetamido-3,3'-di(ethoxycarbonyl))propylidine-bicyclo(2.2.1)heptan-1-yl)methanesulfonyl)-4-(2-methylphenyl)piperazine] reads 35%. For `Cc1ccccc1N1CCN(S(=O)(=O)CC23CCC(CC2=O)C3(C)C)CC1=O` (stereo not drawn) [Example 30, 1-((7,7-Dimethyl-2-oxo-bicyclo(2.2.1)heptan-1-yl)methanesulfonyl)-4-(2-methylphenyl)-3-piperazinone], the inhibition at 10 µM was determined as 16%. The same measure, in the same setting: the result for `Cc1ccccc1N1CCN(S(=O)(=O)CC23CCC(CC2=O)C3(C)C)C(C)C1=O` (stereo not drawn) [Example 31, 1-((7,7-Dimethyl-2-oxo-bicyclo(2.2.1)heptan-1-yl)methanesulfonyl)-4-(2-methylphenyl)-2-methyl-3-piperazinone] reads 5%.

Consider `Cc1ccccc1N1CCN(S(=O)(=O)C[C@]23CC[C@H](C[C@H]2O)C3(C)C)C(C)C1` (stereo partly drawn) [Example 32, 1-((7,7-Dimethyl-2-exo-hydroxy-bicyclo(2.2.1)heptan-1-yl)methane-sulfonyl)-4-(2-methylphenyl)-2-methyl-piperazine], for which the inhibition at 1 µM turned out to be 37%. `Cc1ccccc1N1CCN(S(=O)(=O)CC23CCC(CC2=NO)C3(C)C)CC1` (stereo not drawn) [Example 33, 1-((7,7-Dimethyl-2-oximino-bicyclo(2.2.1)heptan-1-yl)methanesulfonyl)-4-(2-methylphenyl)-piperazine]: under setting [1], the IC50 was determined as 460 nM. Take `Cc1ccccc1N1CCN(S(=O)(=O)C[C@]23CC[C@H](C[C@@H]2NC(=O)[C@H](CCS(C)(=O)=O)NC(=O)OC(C)(C)C)C3(C)C)CC1` [Example 35, 1-((7,7-Dimethyl-2-endo-(2S-(tert-butyloxycarbonyl-amino)-4-(methyl-sulfonyl)-butyramido)-bicyclo(2.2.1)-heptan-1-yl)methanesulfonyl)-4-(2-methylphenyl)-piperazine]: the inhibition at 0.1 µM stood at 91%. Turning to `Cc1ccccc1N1CCN(S(=O)(=O)C[C@]23CC[C@H](C[C@@H]2NC(=O)[C@@H](N)CCS(C)(=O)=O)C3(C)C)CC1` [Example 36, 1-((7,7-Dimethyl-2-endo-(2S-amino-4-(methylsulfonyl)-butyramido)-bicyclo(2.2.1)heptan-1-yl)methanesulfonyl)-4-(2-methylphenyl)piperazine], the half-inhibitory concentration (IC50) under setting [1] amounted to 7.7 nM.

On to `Cc1ccccc1N1CCN(S(=O)(=O)C[C@]23CC[C@H](C[C@@H]2NC(=O)[C@H](CCS(C)(=O)=O)NC(=O)Cc2c[nH]cn2)C3(C)C)CC1` [Example 37, 1-((7,7-Dimethyl-2-endo-(2s-(imidazol-4-ylacetyl-amino)-4-(methyl-sulfonyl)butyramido)-bicyclo(2.2.1)-heptan-1-yl)methanesulfonyl)-4-(2-methylphenyl)-piperazine], for which the IC50 turned out to be 1.2 nM. `Cc1ccccc1N1CCN(S(=O)(=O)C[C@]23CC[C@H](C[C@@H]2NC(=O)[C@H](CCS(C)(=O)=O)N(C)C)C3(C)C)CC1` [Example 38, 1-((7,7-Dimethyl-2-endo-(2s-(dimethylamino)-4-(methylsulfonyl)butyramido)-bicyclo(2.2.1)heptan-1-yl)methanesulfonyl)-4-(2-methyl-phenyl)piperazine]: the IC50 under setting [1] was 5.4 nM. In the case of `Cc1ccccc1N1CCN(S(=O)(=O)C[C@]23CC[C@H](C[C@@H]2NC(=O)OCc2ccccc2)C3(C)C)CC1` [Example 39, 1-((7,7-Dimethyl-2-endo-benzyloxycarbonylamino-bicyclo(2.2.1)heptan-1-yl)methanesulfonyl)-4-(2-methyl-phenyl)piperazine], the inhibition at 1 µM came to 54%. As for `Cc1ccccc1N1CCN(S(=O)(=O)C[C@]23CC[C@H](C[C@@H]2N(C)C(=O)OCc2ccccc2)C3(C)C)CC1` [Example 40, 1-((7,7-Dimethyl-2-endo-methyl(benzyloxy-carbonyl)amino-bicyclo(2.2.1)-heptan-1-yl)methanesulfonyl)4-(2-methylphenyl)piperazine], the inhibition at 1 µM is 35%.

For `Cc1ccccc1N1CCN(S(=O)(=O)C[C@]23CC[C@H](C[C@@H]2N(C)C(=O)[C@@H](N)CCS(C)(=O)=O)C3(C)C)CC1` [Example 41, 1-((7,7-dimethyl-2-endo-methyl(2S-amino-4-(methylsulfonyl)butanoyl)amino-bicyclo(2.2.1)heptan-1-yl)methanesulfonyl)-4-(2-methylphenyl)-piperazine], the half-inhibitory concentration (IC50) under setting [1] was found to be 6.3 nM.
